# Tests used:
# Assay type in all cases: functional
# Staphylococcus [1] = experiment: Antibacterial activity against methicillin sensitive coagulase-negative Staphylococcus
# Streptococcus viridans = experiment: Antibacterial activity against Streptococcus viridans
# Staphylococcus [2] = experiment: Antibacterial activity against methicillin resistant coagulase-negative Staphylococcus
# [3] = Antibacterial activity against beta-hemolytic Streptococcus group C; conditions: Streptococcus sp. 'group C'
# [4] = Antibacterial activity against gram-negative Bacilli species
# Staphylococcus aureus [5] = experiment: Antibacterial activity against vancomycin intermediate Staphylococcus aureus
# Staphylococcus aureus [6] = experiment: Antibacterial activity against methicillin resistant Staphylococcus aureus
# Staphylococcus aureus [7] = experiment: Antibacterial activity against methicillin sensitive Staphylococcus aureus
# Streptococcus agalactiae = experiment: Antibacterial activity against Streptococcus agalactiae
# Streptococcus pyogenes [8] = experiment: Antibacterial activity against Streptococcus pyogenes
# Enterococcus = experiment: Antibacterial activity against Enterococcus species
# [9] = Antibacterial activity against beta-hemolytic Streptococcus group G; conditions: Streptococcus sp. 'group G'
# Staphylococcus [10] = experiment: Antibacterial activity against coagulase-negative Staphylococcus
# Staphylococcus [11] = experiment: Ratio of MBC90 to MIC90 for coagulase-negative Staphylococcus
# Staphylococcus aureus [12] = experiment: Antibacterial activity against Staphylococcus aureus
# Streptococcus pyogenes [13] = experiment: Ratio of MBC90 to MIC90 for Streptococcus pyogenes
# Staphylococcus aureus [14] = experiment: Ratio of MBC90 to MIC90 for Staphylococcus aureus
smiles,measurement,setting,value
C/C(=C\C(=O)OCCCCCCCCC(=O)O)C[C@@H]1OC[C@H](C[C@@H]2O[C@H]2[C@@H](C)[C@H](C)O)[C@@H](O)[C@H]1O [MUPIROCIN],MIC50,Staphylococcus [1],0.25 mg/L
same,MIC90,Staphylococcus [1],32 mg/L
same,MIC50,Streptococcus viridans,1 mg/L
same,MIC90,Streptococcus viridans,2 mg/L
same,MIC50,Staphylococcus [2],0.25 mg/L
same,MIC90,Staphylococcus [2],> 32 mg/L
same,MIC50,[3],0.5 mg/L
same,MIC90,[3],1 mg/L
same,MIC50,[4],> 32 mg/L
same,MIC90,[4],> 32 mg/L
same,MIC50,Staphylococcus aureus [5],0.25 mg/L
same,MIC90,Staphylococcus aureus [5],1 mg/L
same,MIC50,Staphylococcus aureus [6],0.25 mg/L
same,MIC90,Staphylococcus aureus [6],2 mg/L
same,MIC50,Staphylococcus aureus [7],0.25 mg/L
same,MIC90,Staphylococcus aureus [7],0.5 mg/L
same,MIC50,Streptococcus agalactiae,1 mg/L
same,MIC90,Streptococcus agalactiae,2 mg/L
same,MIC50,Streptococcus pyogenes [8]; Streptococcus pyogenes,0.12 mg/L
same,MIC90,Streptococcus pyogenes [8]; Streptococcus pyogenes,0.25 mg/L
same,MIC50,Enterococcus,32 mg/L
same,MIC90,Enterococcus,> 32 mg/L
same,MIC50,[9],0.25 mg/L
same,MIC90,[9],0.5 mg/L
C=C[C@]1(C)C[C@@H](OC(=O)CS[C@@H]2C[C@H]3CC[C@@H](C2)N3C)[C@]2(C)[C@H](C)CC[C@]3(CCC(=O)[C@H]32)[C@@H](C)[C@@H]1O [RETAPAMULIN],MBC,Staphylococcus [10],64 mg/L
same,Ratio,Staphylococcus [11],512
same,MIC50,Staphylococcus [1],0.12 mg/L
same,MIC90,Staphylococcus [1],4 mg/L
same,MIC50,Streptococcus viridans,0.06 mg/L
same,MIC90,Streptococcus viridans,0.25 mg/L
same,Activity,Staphylococcus aureus [12],128 µg/mL
same,MIC50,Staphylococcus [2],0.06 mg/L
same,MIC90,Staphylococcus [2],0.12 mg/L
same,MIC,[3],0.016 mg/L
same,MIC50,[3],0.016 mg/L
same,MIC90,[3],0.03 mg/L
same,MIC50,[4],256 mg/L
same,MIC90,[4],> 512 mg/L
same,MIC50,Staphylococcus aureus [5],0.06 mg/L
same,MIC90,Staphylococcus aureus [5],0.12 mg/L
same,MIC50,Staphylococcus aureus [6],0.12 mg/L
same,MIC90,Staphylococcus aureus [6],0.12 mg/L
same,MIC50,Staphylococcus aureus [7],0.12 mg/L
same,MIC90,Staphylococcus aureus [7],0.12 mg/L
same,MIC50,Streptococcus agalactiae,0.03 mg/L
same,MIC90,Streptococcus agalactiae,0.03 mg/L
same,Activity,Streptococcus pyogenes [8],16 µg/mL
same,MIC,Streptococcus pyogenes [8]; Streptococcus pyogenes,0.016 mg/L
same,MIC50,Streptococcus pyogenes [8]; Streptococcus pyogenes,0.016 mg/L
same,MIC90,Streptococcus pyogenes [8]; Streptococcus pyogenes,0.03 mg/L
same,MIC50,Enterococcus,64 mg/L
same,MIC90,Enterococcus,128 mg/L
same,MIC50,[9],0.03 mg/L
same,MIC90,[9],0.06 mg/L
same,Ratio,Streptococcus pyogenes [13],256
same,Ratio,Staphylococcus aureus [14],1024
